In data set [1] the test system is 6-OHDA treated zebrafish larvae. The experiment in a line: Locomotor behavior rescue (total distance moved, number of jumps) in 6-OHDA zebrafish PD model. The format is in vivo. The note with it: for Optimal concentration: behavioral experiments and TH+ cell counts; for Effective concentration / peak, small range plot: phenotype recovery, total distance moved. An excerpt:
To model Parkinson ̆s disease (PD), a neurotoxin 6-OHDA (6-hyroxydopamine) based method was used in zebrafish and in mice. In this model, 6-OHDA-lesions induce motor manifestations in zebrafish and in mice, such as reduced locomotor ability, and the loss of dopaminergic neurons. Based on the 6-OHDA PD zebrafish model, compounds from a small molecules library were screened for rescue of the parkinsonian phenotype (Example 1, see below).
The screen was based on both the recovery of impaired locomotor behavior and dopaminergic neuronal loss.
Values were normalized for the mean of disease state in each experiment (disease=1). Each plot contains data from 3 independent experiments with a total of 24 larvae. As a control, zebrafish were treated with only the vehicle, ascorbic acid.
For these experiments, Tubingen (TU) wild-type zebrafish, a specific strain of wild-type zebrafish, were used.

The test system is the same in data set [2]. The experiment in a line: LD50 / lethality in the disease context of the zebrafish model.
The conditions of data set [3]: in water; cited from earlier work.
Data set [4] concerns 6-OHDA treated zebrafish larvae. As to the kind of experiment: Freezing (duration of freezing periods, light/dark stimulus) in 6-OHDA zebrafish larvae. Conditions: for Duration of freezing periods, recovery vs 6-OHDA treated larvae: tapentadol 48.5, stavudine 50, nabumetone 0.91 μM, L-Dopa treatment. The format is in vivo. As to the method: In the zebrafish model, the locomotor impairment was measured and related with bradykinesia in patients. Tests included evaluating ‘freezing_ in response to a light/dark stimulus. 6-OHDA induced larvae had fewer freezing episodes but spent longer periods in the frozen state. In previous studies, the duration of freezing episodes has been analyzed in PD patients. […] Nonetheless, it is an inhibitor of the neuronal dopamine transporter and since 6-OHDA needs DAT to enter the neuron and induce the disease, methylphenidate may be a false positive.
As FIGS. 9B-9C show, freezing recovery was tested using 7 candidate molecules at optimal concentrations, in an exemplary experiment with n=8 fish, and methylphenidate and amantadine at 25 ? M.

The test system of data set [5] is 6-OHDA mouse model. The experiment in a line: Abnormal involuntary movements, 6-OHDA mice (Example 5). The format is in vivo. The note with it: mouse, in vivo. Here is the method: This condition results in a range of involuntary movements that can be evaluated by video tracking analyses. […] Evaluations were performed during two independent trials, 30 and 90 minutes after treatment administration. […] Nonetheless, forelimb and orofacial involuntary movements are extremely hard to detect, and reading errors occur, considering the size of the animals. Total abnormal involuntary movements are the sum of all 4 different involuntary movements evaluated and is the parameter often reported in the literature.
As FIGS. 17A-17F show, abnormal involuntary movements were evaluated using the cylinder test 28 days post injection. […] Values mean ě SEM (n=5-8).

Data set [6] relates to 6-OHDA mouse model. As to the kind of experiment: Cylinder test, 6-OHDA mice (Example 5). The format is in vivo. Also on record: Cylinder test: number of right turns: dose or concentration left out as unconfirmed. Conditions: for Cylinder test: number of rearings / Cylinder test: percentage of animals with tremor / Cylinder test: percentage of contralateral paw use: vs 6-OHDA group, daily i.p.

Data set [7] concerns 6-OHDA treated zebrafish larvae. The experiment in a line: Rescue of Tyrosine hydroxylase (TH)-positive dopaminergic neurons in 6-OHDA zebrafish larvae. The note with it: for Neurorescue: TH+ neurons at optimal dose, p; for Neuroprotective effect / recovery of TH+ neurons: at the optimal concentration of each molecule. The format is in vivo. Here is the method: The 7 candidates also were tested in terms of rescue of dopaminergic neurons positive for Tyrosine hydroxylase (Th) in the substancia nigra pars compacta of the test animals. […] Results were normalized for healthy control values (healthy control=100% of neurons). As a control, zebrafish were treated with only the vehicle, ascorbic acid. ‘6-OHDA_ represents results in zebrafish receiving no treatment.
FIGS. 6E-6G show representative Z-projections of confocal stacks of whole-mount anti-TH immunohistochemistry in 6 days post-fertilization (dpf) of zebrafish larvae (age of the fish) control (FIG. 6E), 6-OHDA (FIG. 6F), and tapentadol treated-larvae (FIG. 6G).

For data set [8], the system named is 6-OHDA mouse model. The experiment in a line: Open field test, 6-OHDA mice (Example 5). The class given is in vivo. The note with it: 9 days post lesion, vs 6-OHDA group. As to the method: Open field testing evaluates mainly spontaneous activity. […] Four different parameters were recorded: maximum velocity (FIGS. 18A, 19A, and 20A), total distance moved (FIGS. 18B, 19B, and 20B), mean velocity (FIGS. 18C, 19C, and 20C), and latency to first reach the walls (FIGS. 18D, 19D, and 20D). All parameters were determined by the analysis of a 5 minute video, recorded 30 minutes after therapeutic administration. Values mean ě SEM (n=3-8).
For total distance moved (FIGS. 18B, 19B, and 20B) and mean velocity (FIGS. 18C, 19C, and 20C), an hour video also was analyzed for an animal per group, to evaluate the effect of the drug with time. For these analyses, a 5 minute video prior to therapeutic administration also was taken. […] Ethovision V10 system was used for making the videos for analysis.

The test system of the next data set is rat. The note with it: rat, cited from earlier work.
Data set [9] has as its system 6-OHDA treated zebrafish larvae. As to the kind of experiment: Co-administration with L-Dopa, total distance 6-OHDA larvae move. The class given is in vivo. Conditions: total distance; L-Dopa 250 or 125 μM.
The conditions of data set [10]: sc; cited from earlier work.
For data set [11] the following is noted: in vivo, cited from earlier work.
A further data set relates to dogs. The note with it: dog, in vivo, cited from earlier work.
The conditions of data set [12]: cited from earlier work.
Data set [13] concerns 6-OHDA mouse model. The experiment in a line: Rotarod test, unilateral striatal 6-OHDA mice (Example 5). The class given is in vivo. The note with it: daily i.p., dosages tested (C1 and C2).
The subject of the next data set is mouse. The note with it: mouse, in vivo, cited from earlier work.
For data set [14] the following is noted: 0.01 to 11.4 μg/mL; cited from earlier work.
Data set [15] deals with CY P1A2, CY P2C9, CY P2C19, CY P2D6, and CY P3A4. Conditions: cited from earlier work.
The mark [16] stands for this setting: 6-OHDA disease-induced zebrafish larvae.

“Also recorded” adds a separate entry of the source. Where two headings read alike, the source gives them in different places.

For the compound `N[C@@H](Cc1ccc(O)c(O)c1)C(=O)O` [L-Dopa, Levodopa], in data set [1], the Optimal concentration was determined as 250 µM and the “Effective concentration / peak, small range plot” value amounted to 100 µM. This compound returned an LD50 in data set [2] (setting [16]) above 5 mM. Moreover, the Solubility in data set [3] is 3.3 mg/ml in. Further, in data set [4], the “Duration of freezing periods, recovery vs 6-OHDA treated larvae” value is reported as “no recovery”. The “Induction of abnormal involuntary movements” value in the data set with 6-OHDA mouse model [5] is recorded as “induced these involuntary movements”. Moreover, in the data set with 6-OHDA mouse model [6], the “Cylinder test: number of rearings” value is recorded as “no difference”, the “Cylinder test: percentage of animals with tremor” value is given as “motor recovery was observed” and the “Cylinder test: percentage of contralateral paw use” value is “motor recovery was observed”. For the same compound, in [7], the Neurorescue entry is reported as “no” and the “Neuroprotective effect / recovery of TH+ neurons” value (“Neuroprotective effect / recovery” for short) is recorded as “does not induce the recovery of TH+ neurons”. Further, the “Neuroprotection of TH+ neurons” value in data set [7] (where the disease is less severe (sig *), preliminary) is reported as “can be neuroprotective”. The “Open field: latency to first reach the walls” value in the data set on 6-OHDA mouse model [8] was “did not show motor improvement”. Moreover, the LD50 with rat (in vivo, po) was 1780 mg/kg.

Consider `C#CCN[C@@H]1CCc2ccccc21` [Rasagiline], for which the “Effective concentration / peak, small range plot” value in data set [1] amounted to 25 µM. Besides, in [2] (setting [16]), the LD50 was 187.5 | M. The Solubility in data set [3] is 53 mg/ml in. Besides, the “Effect of co-administration with L-Dopa on locomotor recovery” value in data set [9] is reported as “increased effect”. Moreover, in data set [7], the Neurorescue entry is recorded as “confirmed P < 0.11” and the “Neuroprotective effect / recovery” value is “confirmed”. In the data set on rat, the LD50 is 300 mg/kg. Also, the Effective rat dose in [10] is on record as 0.8 mg/kg/day. In addition, the Oral bioavailability in [11] (po) is 35%. Also, in data set [11], the Half-life is 1.5 to 3.5 h.

As to `Cc1cn([C@H]2C=C[C@@H](CO)O2)c(=O)[nH]c1=O` [stavudine], the LD50 in the data set on dogs (iv) is on record as 1,680 mg/kg; in the data set on dogs (po), 2,000 mg/kg; in data set [2] (setting [16]), above 10 mM; in [2] (6-OHDA zebrafish larvae), > 10,000 μM; in the data set with mouse (iv), 1,000 mg/kg; in the data set on mouse (po), 1,000 mg/kg. Further, the LD50 is 1,200 mg/kg in the data set with rat (in vivo, iv); 4,000 mg/kg in the data set on rat (in vivo, po); 4000 mg/kg (rat) in the data set on rat. Moreover, in data set [12] (HIV-infected adult and pediatric patients, 1-hour IV infusion), the Clearance is 594 ± 164 mL/min. Besides, in [12] (every 6, 8, or 12 hours), the “Accumulation with repeated administration” value was “no significant accumulation”. The Renal clearance in [12] (healthy subjects receiving 80 mg PO) is 272 mL/min. Further, the “Renal elimination, share of the overall clearance” value in [12] (humans, regardless of the route) was “about 40%”. In addition, the Half-life in data set [12] (in adults) was 0.8 to 1.5 h. Also, the “Time of peak plasma concentrations after dosing” value in [12] (oral administration) is at most 1 h. The “Rotarod: latency to fall and speed, recovery” value with 6-OHDA mouse model [13] is given as “did not have an effect”. This compound yielded a Therapeutic window in [1] (6-OHDA zebrafish larvae) of 50 to 70 µM. The compound further gave an Optimal concentration in [1] of 50 µM. Besides, the “Number of jumps: concentration validated as recovering the 6-OHDA induced behavior” value in [1] (zebrafish, in vivo) was determined as 50 µM. Moreover, in data set [1] (zebrafish, in vivo), the “Total distance travelled, difference between treated larvae and disease control” value stood at 400 mm. In addition, the Freezing recovery result in [4] (optimal concentrations, methylphenidate 25 μM) is reported as “positive results; also recorded: reverted freezing”. Moreover, in [4], the “Duration of freezing periods, recovery vs 6-OHDA treated larvae” value was “recovered”. Besides, the “Effect of co-administration with L-Dopa on locomotor recovery” value in [9] was “not affected; also recorded: least effective; also recorded: not influenced”. For the same compound, the “Induction of abnormal involuntary movements” value in the data set with 6-OHDA mouse model [5] was “None of the treatments, tapentadol or stavudine of the combination, induced involuntary movements”. Also, the Protein binding result in [14] is “negligible”. Also, in the data set with 6-OHDA mouse model [6] (parameter disregarded), the “Cylinder test: number of right turns” value was “phenotypic recovery in a very similar way to L-Dopa”. In the data set with 6-OHDA mouse model [6], the “Cylinder test: number of rearings” value is listed as “did not show recovery”. In addition, the “Cylinder test: percentage of animals with tremor” value in the data set with 6-OHDA mouse model [6] is reported as “did not show recovery”. The “Cylinder test: percentage of contralateral paw use” value with 6-OHDA mouse model [6] is listed as “did not show recovery”. The Neurorescue entry in data set [7] is listed as “confirmed p < 0.09”. Also, in data set [7], the “Neuroprotective effect / recovery” value is “confirmed”. Moreover, the “Inhibition of major cytochrome P450 isoforms” value in data set [15] was “not considered to inhibit”.

The values are drawn from US10471025B2, “Compositions for use in treating parkinson's disease and related disorders” (Technophage, Investigação E Desenvolvimento Em …, priority 2015, dated 2019).
